Test results published in publication PMC4701221, “Novel Promising Estrogenic Receptor Modulators: Cytotoxic and Estrogenic Activity of Benzanilides and Dithiobenzanilides” (PLoS ONE, 2016).

Experiments:
A549 cells = test: MTT assay, A549; format: cell-based; details: Homo sapiens, 72 h, lung adenocarcinoma, read-out: Cytotoxic activity IC50, A549
Procedure: The cell lines used in the cytotoxicity study, besides MCF-12A, were purchased from European Collection of Cell Culture (ECACC, Salisbury, UK): HEK293 (human embryonic kidney, ATTC no. CRL-1573), A549 (Human lung carcinoma, ECACC no. 86012804), CCD39Lu (Human lung fibroblasts, ECACC no. 90110512), MCF-7 (Human breast adenocarcinoma, ECACC no. 86012803) and MDA-MB-231 (Human breast adenocarcinoma ECACC no. 92020424). Cell lines were cultured in DMEM medium without phenol red and supplemented with 10% (v/v) FBS, 1% penicillin-streptomycin and 1% L-glutamine. MCF-12A (ATTC no. […]) was purchased from American Type Culture Collection (ATCC Manassas, VA 20110 USA). MCF-12A cells were kept in 1:1 mixture of Dulbecco’s modified Eagle’s medium and Ham’s F12 medium, 20 ng/ml human epidermal growth factor, 100 ng/ml cholera toxin, 0.01 mg/ml bovine insulin, 500 ng/ml hydrocortisone and 5% horse serum. All cell lines were cultured at 37°C, in a humidified atmosphere containing 5% CO2.
Compounds were dissolved in DMSO to the final concentration of […]. A549, CCD39Lu, MCF-7, MDA-MB-231 and MCF-12A cells were seeded in 96 wells plates at density 2x10^4 cells/well and incubated overnight as described above. Subsequently, cells were treated with tested compounds at concentrations: 100 μM; 50 μM; 25μM; 12.5μM; 6 μM; 3 μM; 1.5 μM. […] Cells were incubated 72 h at 37°C in a humidified atmosphere containing 5% CO2 in the cell culture media appropriate for each cell line. Then, the medium was aspirated and 170 μl MTT solution (5mg/ml) was added to each well. Plates were incubated for 2 hours at 37°C, and then plates were centrifuged at 1200 rpm for 3 minutes. The formazan crystals were dissolved in 200 μl DMSO and plates were further agitated on a plate shaker at 300–500 rpm for 10 minutes. Absorbance at 570 nm (with reference wavelenght 650 nm) was measured using a plate reader (Biotek Instruments, Elx-800). Cell viability was calculated as a percentage relative to the control.

ERα W383A = molecular target: T1, ERα W383A (Homo sapiens, UniProt P03372, W383A); test: Estrogen Receptor luciferase assay in HEK293 cells transfected with ERα W383A; format: cell-based; details: HEK293, Fig 6A
T1 construct: expressed in transfected cells; host or cells: HEK293
T1 sequence (P03372 1-595 W383A): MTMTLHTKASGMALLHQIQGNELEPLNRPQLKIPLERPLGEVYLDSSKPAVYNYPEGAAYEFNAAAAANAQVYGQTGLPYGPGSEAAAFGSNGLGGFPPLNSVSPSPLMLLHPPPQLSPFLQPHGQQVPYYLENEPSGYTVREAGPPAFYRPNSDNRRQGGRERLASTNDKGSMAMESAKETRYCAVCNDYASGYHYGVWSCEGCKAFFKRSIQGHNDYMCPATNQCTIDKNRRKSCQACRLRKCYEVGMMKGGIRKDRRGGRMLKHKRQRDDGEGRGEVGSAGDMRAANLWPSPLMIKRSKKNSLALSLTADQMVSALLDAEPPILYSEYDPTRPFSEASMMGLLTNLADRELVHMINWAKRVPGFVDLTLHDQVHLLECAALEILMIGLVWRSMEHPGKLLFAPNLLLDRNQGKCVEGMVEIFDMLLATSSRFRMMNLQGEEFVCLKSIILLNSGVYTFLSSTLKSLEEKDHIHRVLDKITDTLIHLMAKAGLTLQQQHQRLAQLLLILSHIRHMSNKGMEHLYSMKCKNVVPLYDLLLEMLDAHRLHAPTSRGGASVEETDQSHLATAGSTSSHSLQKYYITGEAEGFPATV
Text: To obtain a eukaryotic vector expressing only the ER-α nuclear receptor, a construct was designed by cloning a KpnI-BamHI fragment from plasmid pEGFP-C1-ERα containing the ERα coding sequence that includes a stop signal into the pEGFP-N3 plasmid (Clontech Laboratories, Palo Alto, CA) under the control of the CMV promoter. […] For mock transfections, pEGFP-N3 plasmid was digested with BglII and NotI and religated after polishing DNA ends to remove GFP coding sequence. Plasmid sequence was confirmed by automatic sequencing. Prior to transfection, cells were seeded in 48 well plates at density of 1.5 x 10^4 cells/well and incubated for 24 h to reach a cell confluence of 80–90%. […] MCF-7 cells, which endogenously express ERα receptor, were transfected with p3xERRE/ERE-luciferase plus the pRLTK Renilla luciferase control plasmid (95:5). Firefly and Renilla luciferase activities were measured using the Dual Luciferase Assay System (Promega, Madison, WI, USA), following a standard protocol using a Sirius L luminometer (Berthold Technologies, Bad Wildbad, Germany). Data were expressed as relative changes in luciferase activity and normalized to 100%.
Plasmids for the expression of the ERα W383A and ER-α W383S mutated receptors were constructed by the quick change site directed mutagenesis method using plasmid pEGFP-N-ERα as template.

**Q.** For Fc1ccc(NC(=S)c2ccc(NC(=S)c3ccc(F)cc3)cc2)cc1 [Compound 18], which IC50 (A549 cells) is on record?
**A.** > 100 µM

**Q.** What about the “Activation of ER dependent transcription, ERα W383A vs wild type” value (ERα W383A) of the same compound?
**A.** less active
